Patent US20230011869A1 (Hoffmann-La Roche Inc., priority 2018, published 2023)
Counter-ions that a name gives are not always drawn. Like-named read-outs stand apart in the source and are kept apart here.

System: Acinetobacter baumannii ATCC17961
Assay: Antimicrobial susceptibility testing: 90% growth inhibitory concentration (IC90) determination, Iso-Sensitest broth
Assay type: cell-based
Conditions: Acinetobacter baumannii, ATCC17961, 16 h, read-out: ATCC17961 IC90
In short: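 Twofold serial dilutions (e.g. 50 to 0.097 μM final) in Iso-Sensitest broth, inoculum 5×10^(5) CFU/ml, incubated at 35±2° C. OD600 read every 20 minutes over 16 h; IC90 derived from growth inhibition during logarithmic phase.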

| Structure (SMILES) | IC90 (90% growth inhibitory concentration, Acinetobacter baumannii ATCC17961, Iso-Sensitest broth, OD 600 nm over 16 h) [nM] | IC90 [nM] |
| --- | --- | --- |
| CCc1cc(Nc2nccn3c(-c4ccc(OC(F)F)c(F)c4F)cnc23)ccc1C(=O)N1CCC(C(=O)N2C[C@H]3C[C@@H](C2)N3)CC1 [Example 589, (4-(3,6-diazabicyclo[3.1.1]heptane-3-carbonyl)piperidin-1-yl)(4-((3-(4-(difluoromethoxy)-2,3-difluorophenyl)imidazo[1,2-a]pyrazin-8-yl)amino)-2-ethylphenyl)methanone formate] | 59 | – |
| CCc1cc(Nc2nccn3c(-c4ccc(OC(F)F)c(F)c4F)cnc23)ccc1C(=O)N1CCC(C(=O)NCC2CCNC2)CC1 (centres unmarked) [Example 590, 1-(4-((3-(4-(difluoromethoxy)-2,3-difluorophenyl)imidazo[1,2-a]pyrazin-8-yl)amino)-2-ethylbenzoyl)-N-(pyrrolidin-3-ylmethyl)piperidine-4-carboxamide 2,2,2-trifluoroacetate formate] | – | 30 |
| CCc1cc(Nc2nccn3c(-c4ccc(OC(F)F)c(F)c4F)cnc23)ccc1C(=O)N1CCC(C(=O)N2CC3(CNC3)C2)CC1 [Example 591, (4-(2,6-diazaspiro[3.3]heptane-2-carbonyl)piperidin-1-yl)(4-((3-(4-(difluoromethoxy)-2,3-difluorophenyl)imidazo[1,2-a]pyrazin-8-yl)amino)-2-ethylphenyl)methanone 2,2,2-trifluoroacetate formate] | – | 52 |
| CCc1cc(Nc2nccn3c(-c4ccc(OC(F)F)c(F)c4F)cnc23)ccc1C(=O)N1CCC(C(=O)N2C[C@@H]3C[C@H]2CN3)CC1 [Example 592, (4-((1S,4S)-2,5-diazabicyclo[2.2.1]heptane-2-carbonyl)piperidin-1-yl)(4-((3-(4-(difluoromethoxy)-2,3-difluorophenyl)imidazo[1,2-a]pyrazin-8-yl)amino)-2-ethylphenyl)methanone 2,2,2-trifluoroacetate formate] | – | 38 |
| CCc1cc(Nc2nccn3c(-c4ccc(OC(F)F)c(F)c4F)cnc23)ccc1C(=O)N1CCC(N)CC1 [Example 593, (4-aminopiperidin-1-yl)(4-((3-(4-(difluoromethoxy)-2,3-difluorophenyl)imidazo[1,2-a]pyrazin-8-yl)amino)-2-ethylphenyl)methanone formate] | – | 196 |
